Laboratory results as given in patent publication US20210061917A1, “METHODS AND COMPOSITIONS FOR TREATING VITILIGO” (INSERM (Institut National de la Santé et de la Recherche …, priority 2018, published 2021).

Experiments:
Assay type in all cases: cell-based
[1] = test system: human melanocytes; experiment: Melanocyte death after chemokine stimulation, IncuCyte live cell imaging; conditions: for melanocyte death: chemokine 100 pg/ml, healthy and vitiligo melanocytes, 24 hrs, FIG. 2C
Description: (A) Effect of CXCL10 (5, 20, 100 pg/ml) on cell viability in unstimulated or IFNγ stimulated (50 ng/ml for 48 hrs) melanocytes from vitiligo patients, in presence or absence of CXCR3 antagonist AS612568 (0.02 μM, 0.2 μM or 2 μM) (n=5-8). Cell viability was monitored using lncuCyte® live cell fluorescence imaging system. (B) Effect of siCXCR3 or siC on CXCL10 (100 pg/ml)-induced death of healthy (n=4-8) and vitiligo (n=4) melanocytes. Melanocytes were tracked with CellTracker™ Red CMPTX dye and dead cells tracked with IncuCyte® Cytotox Green reagent. (C) Healthy and vitiligo melanocytes (n=6-12) were transfected with custom-designed siCXCR3B or siC and melanocyte death shown at 24 hrs following CXCL10, CXCL9 or CXCL11 (100 pg/ml) stimulation. (D) Effect of CXCL10 (100 pg/ml) on cell viability in untreated or IFNγ pretreated (50 ng/ml for 48 hrs) melanocytes from vitiligo patients, in presence or absence of CXCR3 blocking antibody (MAB-160, R&D Systems, USA at 1 or 10 μg/ml) (n=3). Cell viability was monitored using IncuCyte® live cell fluorescence imaging system. Melanocytes were tracked with CellTracker™ Red CMPTX dye and dead cells tracked with IncuCyte® Cytotox Green reagent. Results are expressed as mean with SEM, *P<0.05, **P<0.01 and ***P<0.001.
Melanocytes were plated in 96-well plates (10,000/well) and stimulated with 50 ng/ml IFNγ for 48 hrs prior to transfection with 50 or 80 nM siCXCR3 or siC (SmartPool scramble sequence siRNA, Dharmacon, France) or with 80 nM custom-designed siCXCR3B or siC (ThermoFisher, France) using Lipofectamine® RNAiMAX Reagent (Invitrogen, France) in optiMEM medium (Invitrogen). […] Finally, Incucyte® green Cytotox Reagent (100 nM, Essen Bioscience, Michigan, USA) was added to all wells and melanocyte death monitored in real-time using IncuCyte® Zoom live-cell imaging system (Essen Biosciences) which was inside a 37° C. humidified CO2 incubator scanning the plate every 2 hrs. Multiple images were collected per well and quantification of dead melanocytes (yellow co-localised cells) was analysed using the integrated Zoom® software. […]

[2] = biological target: T1, CXCR3 (Homo sapiens, UniProt P49682); experiment: CXCL10-induced melanocyte death, IncuCyte live cell imaging, with CXCR3 antagonist, blocking antibody or siCXCR3; conditions: IFNγ-pretreated (50 ng/ml, 48 hrs) vitiligo melanocytes; AS612568 0.02, 0.2, 2 μM; FIG. 2A
T1 sequence (P49682 1-415 isoform P49682-2): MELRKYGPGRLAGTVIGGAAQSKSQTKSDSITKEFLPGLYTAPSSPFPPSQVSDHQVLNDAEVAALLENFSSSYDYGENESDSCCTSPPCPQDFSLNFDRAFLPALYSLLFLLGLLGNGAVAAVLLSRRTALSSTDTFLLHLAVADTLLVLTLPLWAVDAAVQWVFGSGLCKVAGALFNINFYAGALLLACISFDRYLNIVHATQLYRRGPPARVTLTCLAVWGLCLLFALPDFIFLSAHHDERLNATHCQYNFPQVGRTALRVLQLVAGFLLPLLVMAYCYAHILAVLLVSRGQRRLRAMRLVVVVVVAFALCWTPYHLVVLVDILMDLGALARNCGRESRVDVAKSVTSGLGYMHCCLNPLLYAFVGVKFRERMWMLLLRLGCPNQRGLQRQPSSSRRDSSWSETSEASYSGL
Description: (A) Effect of CXCL10 (5, 20, 100 pg/ml) on cell viability in unstimulated or IFNγ stimulated (50 ng/ml for 48 hrs) melanocytes from vitiligo patients, in presence or absence of CXCR3 antagonist AS612568 (0.02 μM, 0.2 μM or 2 μM) (n=5-8). Cell viability was monitored using lncuCyte® live cell fluorescence imaging system. (B) Effect of siCXCR3 or siC on CXCL10 (100 pg/ml)-induced death of healthy (n=4-8) and vitiligo (n=4) melanocytes. Melanocytes were tracked with CellTracker™ Red CMPTX dye and dead cells tracked with IncuCyte® Cytotox Green reagent. […] Cell viability was monitored using IncuCyte® live cell fluorescence imaging system. […] Results are expressed as mean with SEM, *P<0.05, **P<0.01 and ***P<0.001.
Melanocytes were plated in 96-well plates (10,000/well) and stimulated with 50 ng/ml IFNγ for 48 hrs prior to transfection with 50 or 80 nM siCXCR3 or siC (SmartPool scramble sequence siRNA, Dharmacon, France) or with 80 nM custom-designed siCXCR3B or siC (ThermoFisher, France) using Lipofectamine® RNAiMAX Reagent (Invitrogen, France) in optiMEM medium (Invitrogen). […] Finally, Incucyte® green Cytotox Reagent (100 nM, Essen Bioscience, Michigan, USA) was added to all wells and melanocyte death monitored in real-time using IncuCyte® Zoom live-cell imaging system (Essen Biosciences) which was inside a 37° C. humidified CO2 incubator scanning the plate every 2 hrs. […]

[3] = biological target: T1, CXCR3; experiment: CXCL10-induced death of vitiligo melanocytes in co-culture with autologous CD3+ T cells, IncuCyte
Text: (A) CXCL10-induced death of vitiligo melanocytes in presence or absence of patients own autologous T cells. […] The next day, media was replaced and 3 days later patient's own CD3+ T cell were sorted and added to the melanocytes (n=3) prior to initiation of IncuCyte.

## CXCL10: recombinant human chemokine (PeproTech), CXCR3 ligand used as stimulus
[1]; vitiligo melanocytes, IFNγ pre-treated, CXCL10 5, 20, 100 pg/ml, dose-dependent, P=0.006, FIG. 2A
  melanocyte death compared to non-stimulated melanocytes: significantly increased melanocyte death

## N#Cc1ccc(S(=O)(=O)N(Cc2ccc(-c3nnn[nH]3)c(F)c2)Cc2ccccc2F)cc1 [AS612568, 4-cyano-N-(3-fluoro-4-(1H-tetrazol-5-yl)benzyl)-N-(2-fluorobenzyl)benzenesulfonamide]
[2]
  melanocyte death induced by CXCL10: inhibited melanocyte death induced by CXCL10 in a dose-dependent manner
[3]; AS612568 2 μM, CD3+ T cells in IncuCyte co-culture, P=0.04, FIG. 3B
  augmentation of T cell number: prevented
[3]; AS612568 2 μM, IFNγ-pretreated vitiligo melanocytes plus autologous CD3+ T cells, P=0.008, FIG. 3A
  potentiating effect of T cells on CXCL10-induced melanocyte death: prevented
[3]; AS612568, T cells co-cultured with IFNγ-primed, CXCL10-stimulated melanocytes, data not shown
  T cell proliferation: prevented

B1: CXCL11: recombinant human chemokine (PeproTech), CXCR3 ligand used as stimulus (protein, UniProt O14625 22-94, looked up)
C-X-C motif chemokine 11: FPMFKRGRCLCIGPGVKAVKVADIEKASIMYPSNNCDKIEVIITLKENKGQRCLNPKSKQARLIIKKVERKNF
[1]
  melanocyte death: induced a significant melanocyte death

B2: CXCL9: recombinant human chemokine (PeproTech), CXCR3 ligand used as stimulus (protein, UniProt Q07325 23-125, looked up)
C-X-C motif chemokine 9: TPVVRKGRCSCISTNQGTIHLQSLKDLKQFAPSPSCEKIEIIATLKNGVQTCLNPDSADVKELIKKWEKQVSQKKKQKNGKKHQKKKVLKVRKSQRSRQKKTT
[1]
  melanocyte death: induced a significant melanocyte death
